From patent US20020028851A1, “Guanylhydrazones and their use to treat inflammatory conditions” (priority 1994, published 2002) come the findings set out here.

This experiment has as its system Lewis rats. Nature of the experiment: Focal cerebral infarction (middle cerebral artery severing). The class given is in vivo. The following applies: 1 mg/Kg i.v. one hour before artery severed; 24 hours; p<0.05 vs controls. Here is the method: Lewis rats (male, 270-300 g) were given food and water ad libi tum before and after surgery. Animals were anesthetized with ketamine (120 mg/Kg i.m.), allowed to breathe spontaneously, and body temperature maintained at 35.5-36.5° C. with a heating blanket. The ventral neck and area between the right eye and ear was shaved. A midline ventral cervical incision was used to expose the left common carotid artery (CCA) which was dissected free from surrounding tissue with preservation of the vagus nerve. A loop of 4-0 silk was then placed around the artery for future manipulation. The right common carotid artery was then exposed and permanently occluded with double 4-0 silk ligatures. […]
Twenty-four hours after MCA severing, animals were anesthetized and decapitated and the brains were quickly removed without perfusion and coronally sectioned at 1 mm intervals with a brain slicer for analysis. […] Slices were then placed in buffered 10% formalin and infarct area determined by planimetry on projected images of photographed brain slices. Infarct size for an individual animal was calculated by summing the infarct area present on each brain slice and dividing by the sum of hemisphere area for all slices for that animal (expressed as a percentage of hemisphere area for each slice). Animals were studied in groups of 10, and the data expressed as average stroke volume for the group.

As for `CC(=NNC(=N)N)c1cc(NC(=O)CCCCCCCCC(=O)Nc2cc(C(C)=NNC(=N)N)cc(C(C)=NNC(=N)N)c2)cc(C(C)=NNC(=N)N)c1.Cl.Cl.Cl.Cl` [Compound 14, N,N′-bis(3,5-diacetyl-phenyl)decanediamide tetrakis(amidinohydrazone) tetrahydrochloride], the “mean infarct (stroke) size, percentage of hemisphere area” value is given as 1.7%±0.2%.
